From PubChem BioAssay AID256 (DTP/NCI, 2004)
Values joined by “and” are separate entries in the source; they are usually repeats but may differ in a detail not shown here. Equal values may be shown once. Toxic doses and inconclusive results are not listed.

Test system: CD2F1 mice, L1210 leukemia ip, survival T/C
Assay: NCI In Vivo Anticancer Drug Screen. Data for tumor model L1210 Leukemia (intraperitoneal) in CD2F1 (CDF1) mice
Conditions: higher = longer survival
In short: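 Transplantable tumor in mice; compound-treated vs vehicle-treated groups. Read-out = treated/control ratio of the measured endpoint.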

[1] = endpoint: mean survival time, dose: 0.39 mg/kg/injection, schedule: Q01DX009 (ip), vehicle: saline
[2] = endpoint: mean survival time, dose: 0.78 mg/kg/injection, schedule: Q01DX009 (ip), vehicle: saline
[3] = endpoint: mean survival time, dose: 1.56 mg/kg/injection, schedule: Q01DX009 (ip), vehicle: saline
[4] = endpoint: mean survival time, dose: 3.12 mg/kg/injection, schedule: Q01DX009 (ip), vehicle: saline
[5] = endpoint: mean survival time, dose: 6.25 mg/kg/injection, schedule: Q01DX009 (ip), vehicle: saline
[6] = endpoint: mean survival time, dose: 100.0 mg/kg/injection, schedule: Q04DX003 (ip), vehicle: saline
[7] = endpoint: mean survival time, dose: 200.0 mg/kg/injection, schedule: Q04DX003 (ip), vehicle: saline
[8] = endpoint: mean survival time, dose: 100.0 mg/kg/injection, schedule: Q04DX003 (ip), vehicle: saline with Tween-80
[9] = endpoint: mean survival time, dose: 200.0 mg/kg/injection, schedule: Q04DX003 (ip), vehicle: saline with Tween-80
[10] = endpoint: mean survival time, dose: 400.0 mg/kg/injection, schedule: Q04DX003 (ip), vehicle: saline with Tween-80
[11] = endpoint: mean survival time, dose: 100.0 mg/kg/injection, schedule: Q01DX009 (ip), vehicle: saline with Tween-80
[12] = endpoint: mean survival time, dose: 200.0 mg/kg/injection, schedule: Q01DX009 (ip), vehicle: saline with Tween-80
[13] = endpoint: mean survival time, dose: 100.0 mg/kg/injection, schedule: Q04DX002 (ip), vehicle: saline with Tween-80
[14] = endpoint: mean survival time, dose: 100.0 mg/kg/injection, schedule: Q01DX001 (ip), vehicle: saline with Tween-80
[15] = endpoint: mean survival time, dose: 200.0 mg/kg/injection, schedule: Q01DX001 (ip), vehicle: saline with Tween-80
[16] = endpoint: mean survival time, dose: 400.0 mg/kg/injection, schedule: Q01DX001 (ip), vehicle: saline with Tween-80
[17] = endpoint: mean survival time, dose: 50.0 mg/kg/injection, schedule: Q01DX001 (ip), vehicle: saline with Tween-80

`C1CCC2[N-]CC3CCCCC3[N-]CC3CCCCC3[N-]CC3CCCCC3[N-]CC2C1.[Cu]` (configuration not stated) was tested, and the T/C [1] was 118 % of control, the T/C [2] was 116 % of control and the T/C [3] was 104 % of control. The T/C [4] was 118 % of control and the T/C [5] was 119 % of control.

For `CN(C)CCCNC(CC#N)CCC#N` (configuration not stated), the T/C [6] was 96 % of control and the T/C [7] was 95 % of control.

In the case of `Cc1c(CNc2ccc(C(=O)NC(CC(=O)O)C(=O)O)cc2)ccc2nc(N)nc(N)c12` (configuration not stated), the T/C (endpoint: mean survival time, dose: 0.18 mg/kg/injection, schedule: Q01DX009 (ip), vehicle: saline) is reported as 173 % of control, the T/C [1] is reported as 121 % of control and the T/C (endpoint: mean survival time, dose: 0.78 mg/kg/injection, schedule: Q01DX009 (ip), vehicle: saline with Tween-80) is reported as 94 % of control. The T/C [2] was 107 % of control, the T/C [3] was 86 % of control and 95 % of control and the T/C [4] was 93 % of control. The T/C [5] was 92 % of control, the T/C (endpoint: mean survival time, dose: 25.0 mg/kg/injection, schedule: Q01DX001 (ip), vehicle: saline) was 170 % of control and the T/C (endpoint: mean survival time, dose: 50.0 mg/kg/injection, schedule: Q01DX001 (ip), vehicle: saline) was 117 % of control.

With `CNC(=S)SC1=NS(=O)(=O)c2ccccc2N1` the T/C (endpoint: median survival time, dose: 25.0 mg/kg/injection, schedule: Q01DX005 (ip), vehicle: Klucel (hydroxypropylcellulose) (HPC)) was 106 % of control, the T/C (endpoint: median survival time, dose: 50.0 mg/kg/injection, schedule: Q01DX005 (ip), vehicle: Klucel (hydroxypropylcellulose) (HPC)) was 101 % of control and the T/C (endpoint: median survival time, dose: 100.0 mg/kg/injection, schedule: Q01DX005 (ip), vehicle: Klucel (hydroxypropylcellulose) (HPC)) was 108 % of control. For the same molecule, the T/C (endpoint: median survival time, dose: 144.0 mg/kg/injection, schedule: Q01DX005 (ip), vehicle: Klucel (hydroxypropylcellulose) (HPC)) was 113 % of control and the T/C (endpoint: median survival time, dose: 200.0 mg/kg/injection, schedule: Q01DX005 (ip), vehicle: Klucel (hydroxypropylcellulose) (HPC)) was 118 % of control.

With `S=C1SC2CCCCC2S1` (configuration not stated) the T/C (endpoint: mean survival time, dose: 100.0 mg/kg/injection, schedule: Q01DX001 (ip), vehicle: Klucel (hydroxypropylcellulose) (HPC)) was 104 % of control, the T/C (endpoint: mean survival time, dose: 200.0 mg/kg/injection, schedule: Q01DX001 (ip), vehicle: Klucel (hydroxypropylcellulose) (HPC)) was 107 % of control and the T/C (endpoint: mean survival time, dose: 400.0 mg/kg/injection, schedule: Q01DX001 (ip), vehicle: Klucel (hydroxypropylcellulose) (HPC)) was 98 % of control.

With `O=C(O)c1ccccc1NO` the T/C [8] was 90 % of control, the T/C [9] was 98 % of control and the T/C [10] was 90 % of control.

`Nc1nc(=O)[nH]c(N)c1N` was tested, and the T/C (endpoint: mean survival time, dose: 100.0 mg/kg/injection, schedule: Q04DX002 (ip), vehicle: saline) was 97 % of control and the T/C (endpoint: mean survival time, dose: 200.0 mg/kg/injection, schedule: Q04DX002 (ip), vehicle: saline) was 117 % of control.

In the case of `O=P(O)(O)c1ccc(Oc2ccccc2)cc1`, the T/C (endpoint: mean survival time, dose: 50.0 mg/kg/injection, schedule: Q04DX003 (ip), vehicle: saline) is reported as 102 % of control, the T/C [6] is reported as 93 % of control and the T/C [7] is reported as 103 % of control.

For `CCOC(=O)C(N)Cc1ccc(O)cc1` (configuration not stated), the T/C (endpoint: mean survival time, dose: 100.0 mg/kg/injection, schedule: Q04DX003 (ip), vehicle: other) was 102 % of control, the T/C (endpoint: mean survival time, dose: 200.0 mg/kg/injection, schedule: Q04DX003 (ip), vehicle: other) was 100 % of control and the T/C (endpoint: mean survival time, dose: 400.0 mg/kg/injection, schedule: Q04DX003 (ip), vehicle: other) was 97 % of control.

In the case of `Cc1ccc(C(C)C)c(OCC[N+]2(CCOc3cc(C)ccc3C(C)C)CC=CC2)c1`, the T/C (endpoint: mean survival time, dose: 6.25 mg/kg/injection, schedule: Q04DX002 (ip), vehicle: saline with Tween-80) is reported as 100 % of control, the T/C (endpoint: mean survival time, dose: 12.5 mg/kg/injection, schedule: Q04DX002 (ip), vehicle: saline with Tween-80) is reported as 94 % of control and the T/C (endpoint: mean survival time, dose: 25.0 mg/kg/injection, schedule: Q04DX002 (ip), vehicle: saline with Tween-80) is reported as 100 % of control.

In the case of `O=C1CCC(c2ccccc2)=NN1c1ccccc1`, the T/C (endpoint: mean survival time, dose: 100.0 mg/kg/injection, schedule: Q04DX003 (ip), vehicle: Klucel (hydroxypropylcellulose) (HPC)) is reported as 98 % of control, the T/C (endpoint: mean survival time, dose: 200.0 mg/kg/injection, schedule: Q04DX003 (ip), vehicle: Klucel (hydroxypropylcellulose) (HPC)) is reported as 96 % of control and the T/C (endpoint: mean survival time, dose: 400.0 mg/kg/injection, schedule: Q04DX003 (ip), vehicle: Klucel (hydroxypropylcellulose) (HPC)) is reported as 96 % of control.

`CCOc1ccc(N2C(=O)CSC2=S)cc1` was tested, and the T/C (endpoint: mean survival time, dose: 50.0 mg/kg/injection, schedule: Q01DX009 (ip), vehicle: saline with Tween-80) was 95 % of control, the T/C [11] was 87 % of control and the T/C [12] was 93 % of control.

With `COc1ccc(COc2ccc([N+](=O)[O-])cc2)cc1` the T/C [13] was 87 % of control and the T/C (endpoint: mean survival time, dose: 400.0 mg/kg/injection, schedule: Q04DX002 (ip), vehicle: saline with Tween-80) was 87 % of control.

With `O=[N+]([O-])c1ccc(N/N=C(\CCl)c2ccccc2)c([N+](=O)[O-])c1` the T/C [14] was 92 % of control, the T/C [15] was 97 % of control and the T/C [16] was 92 % of control.

For `CCOc1ccccc1Nc1cc(=O)[nH]c(=O)[nH]1`, the T/C [14] was 100 % of control, the T/C [15] was 97 % of control and the T/C [16] was 92 % of control.

For `CCOc1ccc(-n2c(=O)c(N=Nc3ccccc3OC)c(O)n(-c3ccc(C)cc3)c2=S)cc1`, the T/C [14] was 98 % of control, the T/C [15] was 101 % of control and the T/C [16] was 97 % of control.

With `O/N=C(\CN1CCOCC1)c1ccc(Cl)cc1` the T/C (endpoint: mean survival time, dose: 50.0 mg/kg/injection, schedule: Q01DX009 (ip), vehicle: saline) was 107 % of control, the T/C (endpoint: mean survival time, dose: 100.0 mg/kg/injection, schedule: Q01DX009 (ip), vehicle: saline) was 96 % of control and the T/C (endpoint: mean survival time, dose: 200.0 mg/kg/injection, schedule: Q01DX009 (ip), vehicle: saline) was 103 % of control.

In the case of `Cc1cc(=S)[nH]c2ccccc12`, the T/C (endpoint: mean survival time, dose: 37.5 mg/kg/injection, schedule: Q01DX009 (ip), vehicle: saline) is reported as 91 % of control, the T/C (endpoint: mean survival time, dose: 75.0 mg/kg/injection, schedule: Q01DX009 (ip), vehicle: saline) is reported as 91 % of control and the T/C (endpoint: mean survival time, dose: 150.0 mg/kg/injection, schedule: Q01DX009 (ip), vehicle: saline) is reported as 96 % of control.

With `Cc1ccc(Cl)cc1NC(=S)NC(=O)COc1ccccc1` the T/C (endpoint: mean survival time, dose: 12.5 mg/kg/injection, schedule: Q01DX009 (ip), vehicle: saline with Tween-80) was 98 % of control and 106 % of control, the T/C (endpoint: mean survival time, dose: 25.0 mg/kg/injection, schedule: Q01DX009 (ip), vehicle: saline with Tween-80) was 98 % of control and the T/C (endpoint: mean survival time, dose: 25.0 mg/kg/injection, schedule: Q04DX003 (ip), vehicle: saline with Tween-80) was 100 % of control. For the same molecule, the T/C [17] was 97 % of control, the T/C (endpoint: mean survival time, dose: 50.0 mg/kg/injection, schedule: Q04DX003 (ip), vehicle: saline with Tween-80) was 96 % of control and the T/C [14] was 89 % of control. For the same molecule, the T/C [13] was 87 % of control, the T/C [8] was 90 % of control and the T/C [15] was 88 % of control. The T/C (endpoint: mean survival time, dose: 200.0 mg/kg/injection, schedule: Q04DX002 (ip), vehicle: saline with Tween-80) was 98 % of control.

`CCOC(=O)C(CC1OCCO1)C1=NC(C)(C)CC(C)O1` (configuration not stated) was tested, and the T/C (endpoint: mean survival time, dose: 100.0 mg/kg/injection, schedule: Q01DX001 (ip), vehicle: acetone) was 93 % of control and the T/C (endpoint: mean survival time, dose: 200.0 mg/kg/injection, schedule: Q01DX001 (ip), vehicle: acetone) was 94 % of control.

`O=C(O)c1ccc([N+](=O)[O-])cc1` was tested, and the T/C (endpoint: mean survival time, dose: 100.0 mg/kg/injection, schedule: Q04DX002 (ip), vehicle: Klucel (hydroxypropylcellulose) (HPC)) was 93 % of control, the T/C (endpoint: mean survival time, dose: 200.0 mg/kg/injection, schedule: Q04DX002 (ip), vehicle: Klucel (hydroxypropylcellulose) (HPC)) was 101 % of control and the T/C (endpoint: mean survival time, dose: 400.0 mg/kg/injection, schedule: Q04DX002 (ip), vehicle: Klucel (hydroxypropylcellulose) (HPC)) was 86 % of control.

With `OCCN(c1ccccc1)C1CCCCC1` the T/C (endpoint: mean survival time, dose: 50.0 mg/kg/injection, schedule: Q01DX009 (ip), vehicle: Klucel (hydroxypropylcellulose) (HPC)) was 113 % of control, the T/C (endpoint: mean survival time, dose: 100.0 mg/kg/injection, schedule: Q01DX009 (ip), vehicle: Klucel (hydroxypropylcellulose) (HPC)) was 102 % of control and the T/C (endpoint: mean survival time, dose: 200.0 mg/kg/injection, schedule: Q01DX009 (ip), vehicle: Klucel (hydroxypropylcellulose) (HPC)) was 106 % of control.

For `CC(NC(=O)OCc1ccccc1)C(=O)O` (configuration not stated), the T/C [11] was 97 % of control, the T/C [8] was 100 % of control and the T/C [12] was 94 % of control. The T/C [9] was 105 % of control and the T/C [10] was 103 % of control.

In the case of `CCCP(=O)(CCC)CCC`, the T/C (endpoint: mean survival time, dose: 25.0 mg/kg/injection, schedule: Q01DX001 (ip), vehicle: saline with Tween-80) is reported as 94 % of control, the T/C [17] is reported as 96 % of control and the T/C [14] is reported as 94 % of control.

With `CC1(C)CC(=O)N(Cc2ccccc2)N1C(=O)c1ccccc1` the T/C [14] was 113 % of control, the T/C [15] was 106 % of control and the T/C [16] was 101 % of control.

With `OC(Cc1cccc(/C=N/N2CCOCC2)n1)(C(F)(F)F)C(F)(F)F` the T/C [9] was 89 % of control and the T/C [10] was 89 % of control.
